Values after ≈ are worked out from the molar mass of the structure shown. Values joined by “and” are separate entries in the source; they are usually repeats but may differ in a detail not shown here. Equal values may be shown once. “Also recorded” adds a separate entry of the source. Read-outs that look alike come from different tables or passages of the source. A value given as a limit tells only on which side of the number the result lay.

What all share (assay type): cell-based
For experiment [1], the system named is methicillin-resistant Staphylococcus aureus (MRSA) strain ATCC 700787. Nature of the experiment: MRSA checkerboard growth inhibition assay with FIC. Conditions: for MIC: Staphylococcus aureus; for interaction with BPEI by FIC values (synergy / additive): OD600<0.05 = growth inhibition; for OD600 of growth media: 20 hours. The text has this: The fractional inhibitory concentration (FIC) as used herein is a measure of the interaction of two agents, such as an antibiotic and a BPEI compound, used together, and is an indicator of synergy. FIC uses a value of the MIC of each of the independent agents, e.g., MICA and MICB for agents A and B, for a particular bacterium as the basis, then takes the concentration of each component in a mixture where an MIC(A in B) is observed. For example, for a two component system of agents A and B, MIC(A in B) is the concentration of A in the compound mixture and MIC(B in A) is the concentration of B in the compound mixture. The FIC is defined as follows: FICA=(MIC(A in B)/MICA) Eqn. 1 FICB=(MIC(B in A)/MICB) Eqn. 2 FICA+B=FICA+FICB Eqn. 3
Synergism (i.e., the two compounds together provide a synergistic effect) is defined herein as occurring when FICA+B≤0.5. The mixture is defined as having an additive effect when […]. When, FICA+B>4 the mixture is considered to have an antagonistic interaction. An example of how FIC is used to determine synergism is shown in U.S. Pat. No. 8,338,476, the entirety of which is incorporated herein by reference in its entirety.
(§1) A stock culture was diluted in tryptic soy broth (TSB) and delivered into pre-sterilized 96-well plates. Stock solutions of BPEI and antibiotics, prepared in DMSO, were added to each well of a 96-well plate (final DMSO concentration was 1%), followed by inoculation with MRSA in TSB. Optical density measurements were performed with a Tecan Infinite M200 plate reader and an initial OD600 value recorded. The plates were incubated for 20 h in a humidified incubator at 37° C. Plates were removed, orbitally shaken, and a final OD600 value recorded. […] to obtain the change in OD600 (recorded in the figures as ΔOD600). Antimicrobial activity was determined by the change in optical density. Duplicate measurements were performed and the average reported.
(§2) Using the average ΔOD600 values, separate MIC values for BPEI and ampicillin were determined by the lowest concentration of each that inhibited growth.

Experiment [2] has the same test system. Nature of the experiment: microbe, parasite or virus in culture. Conditions: for MIC / concentration inhibiting MRSA growth: FIG. 6-8; for MIC: Staphylococcus aureus; for synergy with BPEI / change of efficacy against MRSA on addition of BPEI: BPEI 2.65 μg/mL, FIG. 6-10. How it is done:
as §1, §2

Experiment [3] deals with Staphylococcus aureus ATCC 25923. Nature of the experiment: non-resistant S. aureus growth inhibition assay (ΔOD600 after 20 h). Conditions: ATCC25923, ampicillin by itself, FIG. 14. The protocol:
(§3) The bacteria used in this work were obtained from the American Type Culture Collection (methicillin-resistant Staphylococcus aureus (MRSA) strain ATCC 700787, Staphylococcus aureus ATCC 25923, Escherichia coli ATCC 11775, Bacillus subtilis (Ehrenberg) Cohn ATCC 23059). Chemicals from Sigma-Aldrich (e.g., DMSO, ampicillin, methicillin, vancomycin, chloramphenicol, and novobiocin) were used as purchased.
as §1

Experiment [4] deals with Escherichia coli ATCC 11775. In words: E. coli growth inhibition assay (ΔOD600 after 20 h). How it is done:
as §3, §1

The mark [5] stands for this setting: without BPEI, checkerboard FIG. 18-21, read-out: MIC.
Setting [6] is: with BPEI 2.65 μg/mL (2.7 μg/mL).

Consider `CC1(C)S[C@@H]2[C@H](NC(=O)[C@H](N)c3ccc(O)cc3)C(=O)N2[C@H]1C(=O)O` [amoxicillin], for which the MIC in experiment [1] (setting [5]) is above 32 µg/mL. The “interaction with BPEI by FIC values (synergy / additive)” value (“interaction … (synergy / additive)” for short) in experiment [1] (checkerboard FIG. 18-21) is “synergistic activity”. Also, the “MIC / concentration inhibiting MRSA growth” value is 58 µg/mL (≈ 159 µM) in experiment [2] (antibiotic without BPEI); 30 µg/mL and 29 µg/mL in experiment [2] (setting [6]).

Turning to `CC1(C)S[C@@H]2[C@H](NC(=O)[C@H](N)c3ccccc3)C(=O)N2[C@H]1C(=O)O` [ampicillin], the MIC was around 0.05 µg/mL (≈ 0.143 µM) in experiment [3]; 8 µg/mL in experiment [1] (with BPEI 8 μg/mL, Table 1, read-out: ampicillin MIC); 1 µg/mL in experiment [1] (with low-Mw BPEI 16 μg/mL, Table 1, read-out: ampicillin MIC); 32 µg/mL in experiment [1] (without BPEI, Table 1, read-out: ampicillin MIC); above 32 µg/mL in experiment [1] (setting [5]); 12 to 25 µg/mL (≈ 34.3 to 71.5 µM) in experiment [2] (read-out: MIC for ampicillin, with BPEI 2.7 μg/mL, FIG. 2). The MIC was around 1.2 µg/mL (≈ 3.43 µM) in experiment [2] (read-out: MIC for ampicillin, with BPEI 26 μg/mL, FIG. 5); above 50 µg/mL in experiment [2] (read-out: MIC for ampicillin, without BPEI, FIG. 2); 50 µg/mL (≈ 143 µM) in experiment [2] (read-out: MIC for ampicillin, without BPEI, FIG. 3 (second data set)); 3.7 µg/mL (≈ 10.6 µM) in experiment [4] (ATCC11775, ampicillin alone, FIG. 12); 3.7 µg/mL (≈ 10.6 µM) in experiment [4] (ATCC11775, with BPEI 2.65 μg/mL, FIG. 12, read-out: MIC for ampicillin). In addition, the “OD600 of growth media” value is listed as 0.4361 in experiment [1] (ampicillin 0.125 + BPEI 0 μg/mL); 0.4282 in experiment [1] (ampicillin 0.250 + BPEI 0 μg/mL); 0.4342 in experiment [1] (ampicillin 0.500 + BPEI 0 μg/mL); 0.4289 in experiment [1] (ampicillin 1 + BPEI 0 μg/mL); 0.4294 in experiment [1] (ampicillin 2 + BPEI 0 μg/mL); 0.4375 in experiment [1] (ampicillin 4 + BPEI 0 μg/mL). Besides, the “OD600 of growth media” value turned out to be 0.4344 in experiment [1] (ampicillin 8 + BPEI 0 μg/mL), 0.3287 in experiment [1] (ampicillin 16 + BPEI 0 μg/mL), 0.0003 in experiment [1] (ampicillin 32 + BPEI 0 μg/mL) and 0.0014 in experiment [1] (ampicillin 64 + BPEI 0 μg/mL). Moreover, the “interaction … (synergy / additive)” value in experiment [1] (checkerboard FIG. 18-21) is “synergistic activity; also recorded: Synergy”. Moreover, the “factor by which the ampicillin MIC is lowered” value in experiment [1] (with low-Mw BPEI 16 μg/mL) turned out to be 32 ×.

For `O=C(N[C@H](CO)[C@H](O)c1ccc([N+](=O)[O-])cc1)C(Cl)Cl` [chloramphenicol], in experiment [2], the “synergy with BPEI / change of efficacy against MRSA on addition of BPEI” value (“synergy with BPEI / change of efficacy” below) was “large synergy; also recorded: dramatic synergistic effect”. Moreover, the “MIC / concentration inhibiting MRSA growth” value in experiment [2] (antibiotic without BPEI) is 50 µg/mL (≈ 155 µM); in experiment [2] (setting [6]), 5 µg/mL (≈ 15.5 µM). Further, in experiment [2] (on addition of 2.7 μg/mL BPEI, FIG. 8), the “decrease in the MIC” value amounted to 10 fold.

For the compound `COc1cccc(OC)c1C(=O)N[C@@H]1C(=O)N2[C@@H]1SC(C)(C)[C@@H]2C(=O)O` [methicillin], the MIC in experiment [1] (setting [5]) is above 32 µg/mL. In addition, the “interaction … (synergy / additive)” value in experiment [1] (checkerboard FIG. 18-21) is given as “Synergy occurred”. In addition, the results for the “MIC / concentration inhibiting MRSA growth” value in experiment [2] (antibiotic without BPEI) and in experiment [2] (setting [6]) were above 60 µg/mL and 30 µg/mL (≈ 78.9 µM), respectively.

Take `CO[C@@H]1[C@@H](OC(N)=O)[C@@H](O)[C@H](Oc2ccc3c(O)c(NC(=O)c4ccc(O)c(CC=C(C)C)c4)c(=O)oc3c2C)OC1(C)C` [novobiocin]: the “synergy with BPEI / change of efficacy” value in experiment [2] was “did not show any synergy; also recorded: not substantially altered”.

With `CN[C@H](CC(C)C)C(=O)N[C@H]1C(=O)N[C@@H](CC(N)=O)C(=O)N[C@H]2C(=O)N[C@H]3C(=O)N[C@H](C(=O)N[C@H](C(=O)O)c4cc(O)cc(O)c4-c4cc3ccc4O)[C@H](O)c3ccc(c(Cl)c3)Oc3cc2cc(c3O[C@@H]2O[C@H](CO)[C@@H](O)[C@H](O)[C@H]2O[C@H]2C[C@](C)(N)[C@H](O)[C@H](C)O2)Oc2ccc(cc2Cl)[C@H]1O` [vancomycin], the MIC in experiment [1] came out at 4 µg/mL. Besides, the “interaction … (synergy / additive)” value in experiment [1] (checkerboard FIG. 18-21) is listed as “additive”. In experiment [2], the “synergy with BPEI / change of efficacy” value is listed as “did not show any synergy; also recorded: does not change”.
